Assays:
[1] = tested on: vomiting induced by morphine in ferrets; experiment: Vomiting induced by morphine in ferrets, oral dosing; format: in vivo; settings: morphine 0.3 mg/kg subcutaneous; for A: Number of ferrets with retching/number of tested ferrets / B: Frequency of retching (mean ± SD) / C: Time period until first retching (minute; mean ± SD) / D: Duration of retching (minute; mean ± SD) / E: Number of ferrets with vomiting/number of tested ferrets / F: Frequency of vomiting (mean ± SD) / G: Time period until first vomiting (minute; mean ± SD) / H: Duration of vomiting (minute; mean ± SD): 30 minutes
Protocol: Male 6 or 7 ferrets (1.6 to 2.0 kg) per one group were used. Morphine was subcutaneously administered at0.3 mg/0.3 ml/kg. 2.5 hours before morphine dosing, a small amount of a feed was given to the animals. 30 minutes thereafter, predetermined doses of the compound No. 3 were orally given. To a control animal group under no fasting was orally given a predetermined volume of 0.5 % methyl cellulose solution. A predetermined volume of ondansetron was orally given to the animals under fasting. To a control animal group of ondansetron under fasting was orally given a predetermined volume of physiological saline. The frequency of vomiting was counted up to 30 minutes after morphine dosing. The compound No. 3 was suspended in 0.5 % methyl cellulose solution and was then orally dosed at a ratio of 1 ml per 1 kg body weight. An injection of ondansetron at a concentration of 0.2 w/v % was orally dosed. Additionally, 0.5 % methyl cellulose solution was orally given at a ratio of 1 ml per 1 kg body weight, while physiological saline was orally given at a ratio of 1 ml per 1 kg body weight. The data relating to the frequency of vomiting, the latency and the time period from the occurrence of vomiting to the termination thereof were statistically analyzed by the Dunnett test or t test, with reference to the difference from the control group.
The retching suppression ratio and vomiting suppression ratio were calculated by the following formula. [Frequency of retching or vomiting in control] - [Frequency of retching or vomiting in animals dosed with compound No. 3] / [Frequency of retching or vomiting in control] x 100 (%) [formula]

[2] = tested on: cisplatin-induced acute vomiting in dogs; experiment: Cisplatin-induced acute vomiting in dogs, compound intravenously given; format: in vivo, beagle dogs; settings: cisplatin 3 mg/kg i.v.; for Duration of vomiting (in hour;, mean ± SD) / Frequency of vomiting (mean ± SD) / Number of dogs with vomiting/number of tested dogs / Time period until first vomiting (in hour;, mean ± SD): 5 hours
Protocol: Male or female 3 beagle dogs (7.3 to 12.0 kg) per one group were used. Cisplatin was intravenously administered at 3 mg/3 ml/kg. 30 minutes before cisplatin administration, predetermined doses of the compound No. 3 were intravenously given to the animals under fasting. Similarly, a predetermined volume of PEG 400 was intravenously given to a control animal group under fasting.
The compound No. 3 was dissolved in PEG 400 to predetermined concentrations, for intravenous dosing at a ratio of 1 ml per 1 kg body weight. Additionally, PEG 400 was intravenously given at a ratio of 1 ml per 1 kg body weight. The data relating to the frequency of vomiting, the latency and the time period from the occurrence of vomiting to the termination thereof were statistically analyzed by the Dunnett test, with reference to the difference from the control group.
The acute retching suppression ratio and acute vomiting suppression ratio were determined in the same manner as in Example 1,3.

[3] = tested on: cisplatin-induced acute vomiting in dogs; experiment: Cisplatin-induced acute vomiting in dogs, compound orally given; format: in vivo, beagle dogs; settings: cisplatin 3 mg/kg i.v.; for Duration of vomiting (in hour;, mean ± SD) / Frequency of vomiting (mean ± SD) / Number of dogs with vomiting/number of tested dogs / Time period until first vomiting (in hour;, mean ± SD): 5 hours
Protocol: 3 or 4 beagle dogs (7.9 to 13.3 kg), male or female, were used per one group. Cisplatin was intravenously administered at 3 mg/3 ml/kg. One hour before cisplatin dosing, a small volume of a feed was given to the animals. 30 minutes before cisplatin administration, predetermined doses of the compound No. 3 were orally given. Similarly, 0.5 % methyl cellulose solution was orally given to the control animals under no fasting. The frequency of vomiting was counted in number, up to 5 hours after cisplatin dosing.
The compound No. 3 was suspended in 0.5 % methyl cellulose solution to predetermined concentrations, for oral dosing at a ratio of 1 ml per 1 kg body weight. Additionally, the 0.5 % methyl cellulose solution was orally given at a ratio of 1 ml per 1 kg body weight. The data relating to the frequency of vomiting, the time period (latency) until first vomiting and the time period from the occurrence of vomiting to the termination thereof were statistically analyzed by the Dunnett test, with reference to the difference from the control group.
The acute retching suppression ratio and acute vomiting suppression ratio were calculated by the following formula. [Frequency of retching or vomiting in control] - [Frequency of retching or vomiting in animals dosed with the compound No. 3] / [Frequency of retching or vomiting in control] x 100 (%) [formula]

Cc1nccn1CC1CCc2c(c3ccccc3n2C)C1=O (stereo not drawn) [Ondansetron, ondansetron, reference compound]
Acute vomiting suppression ratio ([1]; 3 mg/kg p.o.): 0 % NS
Effect on retching and vomiting (in words) ([1]; 3 mg/kg p.o.): did not suppress
Pseudo-vomiting suppression ratio ([1]; 3 mg/kg p.o.): 12 % NS
A: Number of ferrets with retching/number of tested ferrets ([1]; 3 mg/kg p.o., under fasting): 5/6
B: Frequency of retching (mean ± SD) ([1]; 3 mg/kg p.o., under fasting): 17.2 ± 6.4
C: Time period until first retching (minute; mean ± SD) ([1]; 3 mg/kg p.o., under fasting): 8.8 ± 4.3 min
D: Duration of retching (minute; mean ± SD) ([1]; 3 mg/kg p.o., under fasting): 5.0 ± 2.3 min
E: Number of ferrets with vomiting/number of tested ferrets ([1]; 3 mg/kg p.o., under fasting): 5/6
F: Frequency of vomiting (mean ± SD) ([1]; 3 mg/kg p.o., under fasting): 2.3 ± 1.2
G: Time period until first vomiting (minute; mean ± SD) ([1]; 3 mg/kg p.o., under fasting): 9.2 ± 4.2 min
H: Duration of vomiting (minute; mean ± SD) ([1]; 3 mg/kg p.o., under fasting): 3.7 ± 2.6 min

Cc1ccc(-c2c3n(c(=O)c4ncccc24)CC[C@@H](C)CN(Cc2cc(C(F)(F)F)cc(C(F)(F)F)c2)C3=O)cc1 [Cpd. No.3, (9R)-7-[3,5-bis(trifluoromethyl)benzyl]-6,7,8,9,10,11-hexahydro-9-methyl-5-(4-methylphenyl)-6,13-dioxo-13H-[1,4]diazocino[2,1-g][1,7]naphthylidine]
Acute vomiting suppression ratio ([1]; 1 mg/kg p.o.): 31 % NS
Effect on retching and vomiting (in words) ([1]; 1 mg/kg p.o.): likely to be suppressed
Pseudo-vomiting suppression ratio ([1]; 1 mg/kg p.o.): 43 % NS
A: Number of ferrets with retching/number of tested ferrets ([1]; 1 mg/kg p.o.): 4/6
B: Frequency of retching (mean ± SD) ([1]; 1 mg/kg p.o.): 18.3 ± 7.0
C: Time period until first retching (minute; mean ± SD) ([1]; 1 mg/kg p.o.): 12.3 ± 5.6 min
D: Duration of retching (minute; mean ± SD) ([1]; 1 mg/kg p.o.): 5.5 ± 1.9 min
E: Number of ferrets with vomiting/number of tested ferrets ([1]; 1 mg/kg p.o.): 4/6
F: Frequency of vomiting (mean ± SD) ([1]; 1 mg/kg p.o.): 2.5 ± 1.0
G: Time period until first vomiting (minute; mean ± SD) ([1]; 1 mg/kg p.o.): 13.3 ± 5.4 min
H: Duration of vomiting (minute; mean ± SD) ([1]; 1 mg/kg p.o.): 3.8 ± 1.9 min
Acute vomiting suppression ratio ([1]; 3 mg/kg p.o.): 86 % a
Effect on retching and vomiting (in words) ([1]; 3 mg/kg p.o.): significantly suppressed
Pseudo-vomiting suppression ratio ([1]; 3 mg/kg p.o.): 79 % b
A: Number of ferrets with retching/number of tested ferrets ([1]; 3 mg/kg p.o.): 5/6
B: Frequency of retching (mean ± SD) ([1]; 3 mg/kg p.o.): 6.8 ± 2.6 b
C: Time period until first retching (minute; mean ± SD) ([1]; 3 mg/kg p.o.): 10.5 ± 3.9 min
D: Duration of retching (minute; mean ± SD) ([1]; 3 mg/kg p.o.): 2.7 ± 1.7 min
E: Number of ferrets with vomiting/number of tested ferrets ([1]; 3 mg/kg p.o.): 1/6
F: Frequency of vomiting (mean ± SD) ([1]; 3 mg/kg p.o.): 0.5 ± 0.5 a
G: Time period until first vomiting (minute; mean ± SD) ([1]; 3 mg/kg p.o.): 25.8 ± 4.2 b minute
H: Duration of vomiting (minute; mean ± SD) ([1]; 3 mg/kg p.o.): 1.5 ± 1.5 min
Suppression ratio of acute vomiting ([2]; 0.3 mg/kg i.v.): 34 % b
Duration of vomiting (in hour;, mean ± SD) ([2]; 0.3 mg/kg i.v.): 1.6 ± 0.2 h
Frequency of vomiting (mean ± SD) ([2]; 0.3 mg/kg i.v.): 12.0 ± 1.5a
Number of dogs with vomiting/number of tested dogs ([2]; 0.3 mg/kg i.v.): 3/3
Time period until first vomiting (in hour;, mean ± SD) ([2]; 0.3 mg/kg i.v.): 1.6 ± 0.2 h
Effect on cisplatin-induced vomiting (in words) ([2]; 0.3 mg/kg or higher i.v.): significantly suppressed
Suppression ratio of acute vomiting ([2]; 1 mg/kg i.v.): 71 % b
Duration of vomiting (in hour;, mean ± SD) ([2]; 1 mg/kg i.v.): 1.7 ± 0.5 h
Frequency of vomiting (mean ± SD) ([2]; 1 mg/kg i.v.): 5.3 ± 1.2 a
Number of dogs with vomiting/number of tested dogs ([2]; 1 mg/kg i.v.): 3/3
Time period until first vomiting (in hour;, mean ± SD) ([2]; 1 mg/kg i.v.): 1.4 ± 0.3 h
Effect on cisplatin-induced vomiting (in words) ([2]; 3 mg/kg i.v.): almost completely suppressed
Suppression ratio of acute vomiting ([2]; 3 mg/kg i.v.): 96 % b
Duration of vomiting (in hour;, mean ± SD) ([2]; 3 mg/kg i.v.): 0.1 ± 0.1 a hour
Frequency of vomiting (mean ± SD) ([2]; 3 mg/kg i.v.): 0.7 ± 0.7 a
Number of dogs with vomiting/number of tested dogs ([2]; 3 mg/kg i.v.): 1/3
Time period until first vomiting (in hour;, mean ± SD) ([2]; 3 mg/kg i.v.): 3.9 ± 1.1 a hour
Effect on the latency (in words) ([2]; i.v.): prolonged
Suppression ratio of acute vomiting ([3]; 1 mg/kg p.o.): 18 % NS
Duration of vomiting (in hour;, mean ± SD) ([3]; 1 mg/kg p.o.): 1.5 ± 0.2 h
Frequency of vomiting (mean ± SD) ([3]; 1 mg/kg p.o.): 11.3 ± 0.5
Number of dogs with vomiting/number of tested dogs ([3]; 1 mg/kg p.o.): 4/4
Time period until first vomiting (in hour;, mean ± SD) ([3]; 1 mg/kg p.o.): 1.6 ± 0.2 h
Effect on cisplatin-induced vomiting (in words) ([3]; 3 mg/kg or higher p.o.): significantly suppressed
Suppression ratio of acute vomiting ([3]; 3 mg/kg p.o.): 54 % NS
Duration of vomiting (in hour;, mean ± SD) ([3]; 3 mg/kg p.o.): 1.1 ± 0.2 h
Frequency of vomiting (mean ± SD) ([3]; 3 mg/kg p.o.): 6.3 ± 0.8 a
Number of dogs with vomiting/number of tested dogs ([3]; 3 mg/kg p.o.): 4/4
Time period until first vomiting (in hour;, mean ± SD) ([3]; 3 mg/kg p.o.): 1.9 ± 0.1 h
Effect on cisplatin-induced vomiting (in words) ([3]; 10 mg/kg p.o.): almost completely suppressed
Effect on the latency (in words) ([3]; 10 mg/kg p.o.): prolonged
Suppression ratio of acute vomiting ([3]; 10 mg/kg p.o.): 93 % b
Duration of vomiting (in hour;, mean ± SD) ([3]; 10 mg/kg p.o.): 0.2 ± 0.2 a hour
Frequency of vomiting (mean ± SD) ([3]; 10 mg/kg p.o.): 1.0 ± 0.7 a
Number of dogs with vomiting/number of tested dogs ([3]; 10 mg/kg p.o.): 2/4
Time period until first vomiting (in hour;, mean ± SD) ([3]; 10 mg/kg p.o.): 3.6 ± 0.8 a hour
